Results taken from ChEMBL document CHEMBL4602687, “Dual Binding to Orthosteric and Allosteric Sites Enhances the Anticancer Activity of a TRAP1-Targeting Drug” (J Med Chem, 2020).

Experiments:
[1] = target: T1, Heat shock protein HSP90 (Homo sapiens, UniProt P07900+P08238); assay: Inhibition of HSP90 in human PC3 cells assessed as change in AKT expression at 5 uM measured after 2 to 12 hrs by Western blot analysis; assay type: cell-based; details: pc-3, 5 µM
[2] = tested on: Hepatocyte; assay: Cytotoxicity against mouse hepatocytes assessed as reduction in cell viability up to 3 uM measured after 24 hrs by MTT assay; assay type: cell-based
[3] = target: T1, Heat shock protein HSP90; assay: Inhibition of HSP90 in human PC3 cells assessed as change in Cdk4 expression at 5 uM measured after 2 to 12 hrs by Western blot analysis; assay type: cell-based; details: pc-3, 5 µM
[4] = target: T1, Heat shock protein HSP90; assay: Inhibition of HSP90 in human PC3 cells at 5 uM measured after 2 to 12 hrs by Western blot analysis; assay type: cell-based; details: pc-3, 5 µM
[5] = target: T1, Heat shock protein HSP90; assay: Inhibition of HSP90 in human PC3 cells assessed as change in Hsp70 expression at 5 uM measured after 2 to 12 hrs by Western blot analysis; assay type: cell-based; details: pc-3, 5 µM
[6] = target: T1, Heat shock protein HSP90; assay: Inhibition of HSP90 in human PC3 cells assessed as change in Chk1 expression at 5 uM measured after 2 to 12 hrs by Western blot analysis; assay type: cell-based; details: pc-3, 5 µM
[7] = target: T2, Heat shock protein 75 kDa, mitochondrial (Homo sapiens, UniProt Q12931); assay: Inhibition of PU-H71-FITC binding to recombinant wild-type human TRAP1 expressed in Escherichia coli BL21 (DE3) measured after 2 hrs by fluorescence polarization assay
T2 sequence (Q12931 whole entry): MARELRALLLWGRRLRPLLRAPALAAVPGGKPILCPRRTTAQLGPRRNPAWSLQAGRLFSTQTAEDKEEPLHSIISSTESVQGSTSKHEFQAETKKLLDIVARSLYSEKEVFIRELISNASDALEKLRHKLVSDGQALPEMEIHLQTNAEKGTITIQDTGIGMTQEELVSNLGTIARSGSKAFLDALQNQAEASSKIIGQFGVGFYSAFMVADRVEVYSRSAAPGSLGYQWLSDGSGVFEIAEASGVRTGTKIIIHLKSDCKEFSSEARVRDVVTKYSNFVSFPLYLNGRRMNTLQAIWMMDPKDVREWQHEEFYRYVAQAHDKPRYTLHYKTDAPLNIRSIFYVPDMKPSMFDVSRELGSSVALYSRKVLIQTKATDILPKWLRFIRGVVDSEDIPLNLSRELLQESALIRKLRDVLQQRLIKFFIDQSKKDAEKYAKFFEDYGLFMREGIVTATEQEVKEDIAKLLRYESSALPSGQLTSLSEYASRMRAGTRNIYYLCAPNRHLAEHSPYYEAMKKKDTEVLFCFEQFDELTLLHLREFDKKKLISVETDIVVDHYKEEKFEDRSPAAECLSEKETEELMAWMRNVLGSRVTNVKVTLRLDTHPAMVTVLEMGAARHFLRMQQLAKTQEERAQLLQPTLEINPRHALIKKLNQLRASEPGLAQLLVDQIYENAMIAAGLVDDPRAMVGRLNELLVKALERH

Compound	inhibition (INH) [1]	Activity [2]	inhibition (INH) [3]	inhibition (INH) [4]	inhibition (INH) [5]	inhibition (INH) [6]	IC50 [7] [nM]
Nc1ncnc2c1nc(Sc1cc3c(cc1I)OCO3)n2CCCCCCCCCC[P+](c1ccccc1)(c1ccccc1)c1ccccc1.[Br-]	Not Active	Non-Toxic	Not Active	Not Active	Not Active	Not Active	1880
Nc1ncnc2c1nc(Sc1cc3c(cc1I)OCO3)n2CCCCCC[P+](c1ccccc1)(c1ccccc1)c1ccccc1							794
Nc1ncnc2c1nc(Sc1cc3c(cc1I)OCO3)n2CCCCCCCC[P+](c1ccccc1)(c1ccccc1)c1ccccc1							872
